The results in this text go back to US9776972B2, “Pyrazole derivatives as arginine methyltransferase inhibitors and uses thereof” (priority 2013, dated 2017).

One assay concerns the target T1, human PRMT1 (Homo sapiens, UniProt Q99873).
T1 construct: GST-tagged PRMT1; made in house; host or cells: High Five insect cells (baculovirus)
In words: PRMT1 Biochemical Assay (3H-SAM Flashplate, peptide substrate). From the text:
S-adenosylmethionine (SAM), S-adenosylhomocysteine (SAH), bicine, Tween20, dimethylsulfoxide (DMSO), bovine skin gelatin (BSG), and Tris(2-carboxyethyl)phosphine hydrochloride solution (TCEP) were purchased from Sigma-Aldrich at the highest level of purity possible. ^3H-SAM was purchase from American Radiolabeled Chemicals with a specific activity of 80 Ci/mmol. 384-well streptavidin Flashplates were purchased from PerkinElmer.
Recombinant baculovirus were generated according to Bac-to-Bac kit instructions (Life Technologies). […] Infections were carried out at 27° C. for 48 hours, harvested by centrifugation, and stored at −80° C. for purification.
GST-tagged PRMT1 was eluted with 50 mM Tris, 2 mM glutathione, pH 7.8, dialysed in buffer A and concentrated to 1 mg/mL.
General Procedure for PRMT1 Enzyme Assays on Peptide Substrates.
(§1) The assays were all performed in a buffer consisting of 20 mM Bicine (pH=7.6), 1 mM TCEP, 0.005% BSG, and 0.002% Tween 20, prepared on the day of use. […] DMSO (1 ul) was added to Columns 11, 12, 23, 24, rows A-H for the maximum signal control and 1 ul of SAH, a known product and inhibitor of PRMT1, was added to columns 11, 12, 23, 24, rows I-P for the minimum signal control. A cocktail (40 ul) containing the PRMT1 enzyme was added by Multidrop Combi (Thermo-Fisher). The compounds were allowed to incubate with PRMT1 for 30 min at room temperature, then a cocktail (10 ul) containing SAM and peptide was added to initiate the reaction (final volume=51 ul). […] The assays were stopped by the addition of non-radiolabeled SAM (10 ul) to a final concentration of 300 uM, which dilutes the ^3H-SAM to a level where its incorporation into the peptide substrate is no longer detectable. 50 ul of the reaction in the 384-well polypropylene plate was then transferred to a 384-well Flashplate and the biotinylated peptides were allowed to bind to the streptavidin surface for at least 1 hour before being washed once with 0.1% Tween20 in a Biotek ELx405 plate washer. The plates were then read in a PerkinElmer TopCount plate reader to measure the quantity of ^3H-labeled peptide bound to the Flashplate surface, measured as disintegrations per minute (dpm) or alternatively, referred to as counts per minute (cpm).
(§2) Where dpm=disintegrations per minute, cmpd=signal in assay well, and min and max are the respective minimum and maximum signal controls.
(§3) Where top and bottom are the normally allowed to float, but may be fixed at 100 or 0 respectively in a 3-parameter fit. The Hill Coefficient normally allowed to float but may also be fixed at 1 in a 3-parameter fit. Y is the % inhibition and X is the compound concentration.

In the next assay the target is T2, human PRMT6 (Homo sapiens, UniProt Q96LA8).
T2 construct: Flag-PRMT6-His; made in house; host or cells: HEK 293F cells (BacMam baculovirus)
In words: PRMT6 Biochemical Assay (3H-SAM Flashplate, peptide substrate).
Source text: S-adenosylmethionine (SAM), S-adenosylhomocysteine (SAH), bicine, Tween20, dimethylsulfoxide (DMSO), bovine skin gelatin (BSG), sodium butyrate and Tris(2-carboxyethyl)phosphine hydrochloride solution (TCEP) were purchased from Sigma-Aldrich at the highest level of purity possible. ^3H-SAM was purchase from American Radiolabeled Chemicals with a specific activity of 80 Ci/mmol. 384-well streptavidin Flashplates were purchased from PerkinElmer.
Peptide representative of human histone H4 residues 36-50 was synthesized with an N-terminal linker-affinity tag motif and a C-terminal amide cap by 21st Century Biochemicals.
The amplified gene was subcloned into pFastBacMam (Viva Biotech).
Recombinant baculovirus were generated according to Bac-to-Bac kit instructions (Life Technologies). […] Infections were carried out at 37° C. for 48 hours, harvested by centrifugation, and stored at −80° C. for purification.
Column was washed with 20 mM imidazole in the same buffer and Flag-PRMT6-His was eluted with 150 mM imidazole. […] Flag-PRMT6-His was eluted with 200 ug/ml FLAG peptide in the same buffer. Pooled fractions were dialysed in 20 mM Tris, 150 mM NaCl, 10% glycerol and 5 mM β-mercaptoethanol, pH 7.8.
General Procedure for PRMT6 Enzyme Assays on Peptide Substrates.
as §1, with “PRMT6,” for “PRMT1,”, “PRMT6” for “PRMT1”, “400” for “300”
as §2, §3

Where [1] appears, read: single experiment or average of multiple experiments.
[2] abbreviates: Biochemical IC50 PRMT6, single experiment or average of multiple experiments.

Read-outs that look alike come from different tables or passages of the source.

T1 sequence (Q99873 with tags, fused parts or gaps): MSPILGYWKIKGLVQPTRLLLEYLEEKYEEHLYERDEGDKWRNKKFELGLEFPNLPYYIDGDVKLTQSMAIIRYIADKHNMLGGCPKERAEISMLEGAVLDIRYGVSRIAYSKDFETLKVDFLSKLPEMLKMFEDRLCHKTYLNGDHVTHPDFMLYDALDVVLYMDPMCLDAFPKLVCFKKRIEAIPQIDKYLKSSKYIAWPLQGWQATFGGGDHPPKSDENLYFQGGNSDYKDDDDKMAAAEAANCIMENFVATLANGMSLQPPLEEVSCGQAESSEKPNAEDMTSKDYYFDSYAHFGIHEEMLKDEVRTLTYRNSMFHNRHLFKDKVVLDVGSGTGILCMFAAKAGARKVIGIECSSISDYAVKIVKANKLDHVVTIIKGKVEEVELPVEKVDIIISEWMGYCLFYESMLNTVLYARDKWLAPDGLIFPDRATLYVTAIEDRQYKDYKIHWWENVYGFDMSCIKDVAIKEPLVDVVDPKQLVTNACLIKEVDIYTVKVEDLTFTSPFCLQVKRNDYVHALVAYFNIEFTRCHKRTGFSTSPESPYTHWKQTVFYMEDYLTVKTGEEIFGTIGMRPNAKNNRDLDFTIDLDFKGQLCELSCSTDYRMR
T2 sequence (Q96LA8 with tags, fused parts or gaps): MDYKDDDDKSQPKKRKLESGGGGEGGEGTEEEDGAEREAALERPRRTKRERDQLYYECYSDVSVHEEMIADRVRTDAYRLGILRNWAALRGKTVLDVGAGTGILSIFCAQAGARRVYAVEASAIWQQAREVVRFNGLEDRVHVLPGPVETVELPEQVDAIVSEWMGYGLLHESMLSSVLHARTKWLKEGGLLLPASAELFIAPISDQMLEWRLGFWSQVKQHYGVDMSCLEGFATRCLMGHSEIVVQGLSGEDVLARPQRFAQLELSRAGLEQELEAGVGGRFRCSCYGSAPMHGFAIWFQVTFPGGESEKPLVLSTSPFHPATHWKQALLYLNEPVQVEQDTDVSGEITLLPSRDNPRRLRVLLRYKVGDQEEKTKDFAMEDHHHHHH

`CN(CCN)Cc1c[nH]nc1-c1ccc(Cl)cc1F` [Compound 132]: the IC50 against human PRMT1 (setting [1]) stood at 23.9 nM; against human PRMT6 (setting [2]), 9.91 nM.
Regarding `CN(CCN)Cc1c[nH]nc1-c1ccc(F)cc1F` [Compound 99], the values for the IC50 against human PRMT1 (setting [1]) and on human PRMT6 (setting [2]) were 90.2 nM and 27.9 nM, respectively.
The corresponding values for `CC(C)Oc1ccc(-c2n[nH]cc2CN(C)CCN)cc1F` [Compound 97] are 2.6 nM and 7.35 nM.
The corresponding values for `COc1ccccc1-c1n[nH]cc1CN(C)CCN` [Compound 109] are 244 nM and 217 nM.
The corresponding values for `COCCn1ncc(CN(C)CCN)c1-c1ccc(F)cc1` [Compound 6] are 3460 nM and 312 nM.
Turning to `Cc1c(F)cccc1-c1n[nH]cc1CN(C)CCN` [Compound 129], the IC50 against human PRMT1 (setting [1]) came out at 121 nM; against human PRMT6 (setting [2]), 52.8 nM.
As to `CNCCN(C)Cc1c[nH]nc1-c1ccc(OC2CCOCC2)c(Cl)c1` [Compound 292], the IC50 was less than 100 nM against human PRMT1, 27.3 nM at human PRMT1 (setting [1]), less than 100 nM against human PRMT6 (Biochemical IC50 PRMT6) and 83.2 nM at human PRMT6 (setting [2]).
As to `Cc1ccc(-c2n[nH]cc2CN(C)CCN)cc1Cl` [Compound 126], the IC50 on human PRMT1 (setting [1]) was determined as 6.81 nM; on human PRMT6 (setting [2]), 4.94 nM.
Regarding `CNCCN(C)Cc1c[nH]nc1-c1ccc(NC(C)C)cc1` [Compound 295], the half-inhibitory concentration (IC50) at human PRMT1 was less than 100 nM; on human PRMT1 (setting [1]), 28.7 nM; on human PRMT6 (Biochemical IC50 PRMT6) it was less than 100 nM; against human PRMT6 (setting [2]) it was 64.9 nM.
As to `CNCCN(C)Cc1c[nH]nc1-c1ccc(Oc2ccncn2)cc1` [Compound 312], the IC50 was less than 100 nM at human PRMT1, 11.6 nM against human PRMT1 (setting [1]), less than 100 nM on human PRMT6 (Biochemical IC50 PRMT6) and 19.5 nM against human PRMT6 (setting [2]).
As to `CN(CCN)Cc1c[nH]nc1-c1ccc(Cl)c(F)c1` [Compound 118], the IC50 on human PRMT1 (setting [1]) came to 2.94 nM; against human PRMT6 (setting [2]), 3.18 nM.
The like results for `CN(CCN)Cc1c[nH]nc1-c1ccc(C2CCOCC2)cc1` [Compound 98] were, in that order, 5.84 nM and 15.4 nM.
The like results for `CC(O)c1ccc(-c2n[nH]cc2CN(C)CCN)cc1` (centres unmarked) [Compound 115] were, in that order, 46 nM and 25.4 nM.
The corresponding values for `CN(CCN)Cc1c[nH]nc1-c1cccc(Cl)c1F` [Compound 123] are 43.9 nM and 17.1 nM.
Turning to `CN(CCN)Cc1n[nH]cc1-c1ccc(Cl)cc1` [Compound 102], the concentration for half-maximal inhibition (IC50) on human PRMT1 (setting [1]) worked out at 11.3 nM; against human PRMT6 (setting [2]) it was 9.02 nM.
`CNCCN(C)Cc1c[nH]nc1-c1ccc(OCC2CC2)cc1` [Compound 288]: the IC50 against human PRMT1 was less than 100 nM; against human PRMT1 (setting [1]), 8.97 nM; on human PRMT6 (Biochemical IC50 PRMT6), less than 100 nM; against human PRMT6 (setting [2]), 14.3 nM.
Take `CC[C@@H](C)Oc1ccc(-c2n[nH]cc2CN(C)CCNC)cc1` [Compound 308]: the concentration for half-maximal inhibition (IC50) is less than 100 nM on human PRMT1, 7.07 nM on human PRMT1 (setting [1]), less than 100 nM on human PRMT6 (Biochemical IC50 PRMT6) and 13.1 nM at human PRMT6 (setting [2]).
`CN(CCN)Cc1c[nH]nc1-c1ccc(C2CC2)cc1` [Compound 116]: the concentration for half-maximal inhibition (IC50) at human PRMT1 (setting [1]) was found to be 4.84 nM; at human PRMT6 (setting [2]), 7.3 nM.
For `CNCCN(C)Cc1c[nH]nc1-c1ccc(OC(COC)C(C)C)cc1` (centres unmarked) [Compound 311], the IC50 was less than 100 nM against human PRMT1, 21.6 nM at human PRMT1 (setting [1]), less than 100 nM against human PRMT6 (Biochemical IC50 PRMT6) and 50.3 nM on human PRMT6 (setting [2]).
Consider `CNCCN(C)Cc1c[nH]nc1-c1ccc(OCC2CC2)c(F)c1` [Compound 298], for which the 50% inhibitory concentration (IC50) against human PRMT1 is less than 100 nM; at human PRMT1 (setting [1]) it was 7.87 nM; against human PRMT6 (Biochemical IC50 PRMT6), less than 100 nM; against human PRMT6 (setting [2]), 26.9 nM.
Consider `CNCCN(C)Cc1c[nH]nc1-c1ccc(Oc2ccccc2)c(F)c1` [Compound 297], for which the IC50 at human PRMT1 was less than 100 nM; against human PRMT1 (setting [1]) it was 3.37 nM; at human PRMT6 (Biochemical IC50 PRMT6), less than 100 nM; on human PRMT6 (setting [2]) it was 12.1 nM.
Take `CN(CCN)Cc1c[nH]nc1-c1ccc(C(F)(F)F)c(F)c1` [Compound 141]: the IC50 is 8.16 nM against human PRMT1 (setting [1]) and 7.79 nM against human PRMT6 (setting [2]).
Consider `CN(CCN)Cc1c[nH]nc1-c1cccc(Cl)c1` [Compound 122], for which the IC50 against human PRMT1 (setting [1]) was determined as 24.3 nM; against human PRMT6 (setting [2]) it was 8.99 nM.
Take `CNCCN(C)Cc1c[nH]nc1-c1ccc(N(C)C(C)C)cc1` [Compound 300]: the IC50 is less than 100 nM on human PRMT1, 27.9 nM against human PRMT1 (setting [1]), 101 to 1000 nM against human PRMT6 (Biochemical IC50 PRMT6) and 177 nM at human PRMT6 (setting [2]).
Consider `CCN(CC)C(=O)c1ccc(-c2n[nH]cc2CN(C)CCN)cc1` [Compound 143], for which the IC50 came out at 116 nM against human PRMT1 (setting [1]) and 107 nM at human PRMT6 (setting [2]).
The corresponding values for `CN(CCN)Cc1c[nH]nc1-c1cc(Cl)cc(Cl)c1` [Compound 137] are 19.2 nM and 8.42 nM.
The like results for `Cc1cc(Cl)ccc1-c1n[nH]cc1CN(C)CCN` [Compound 133] were, in that order, 24.8 nM and 10.1 nM.
For `CNCCN(C)Cc1c[nH]nc1-c1ccc(OCC2CCOCC2)cc1` [Compound 284], the IC50 against human PRMT1 is less than 100 nM; on human PRMT1 (setting [1]), 13.3 nM; against human PRMT6 (Biochemical IC50 PRMT6) it was less than 100 nM; at human PRMT6 (setting [2]) it was 40.5 nM.
As to `CC(C)c1ccc(-c2c[nH]nc2CN(C)CCN)cc1` [Compound 101], the IC50 is 20.3 nM against human PRMT1 (setting [1]) and 136 nM against human PRMT6 (setting [2]).
As to `CNCCN(C)Cc1c[nH]nc1-c1ccc(OCC(C)C)cc1` [Compound 306], the concentration for half-maximal inhibition (IC50) is less than 100 nM against human PRMT1, 7.1 nM at human PRMT1 (setting [1]), less than 100 nM against human PRMT6 (Biochemical IC50 PRMT6) and 23.3 nM on human PRMT6 (setting [2]).
As for `CNCCN(C)Cc1c[nH]nc1-c1ccc(NCC(C)C)cc1` [Compound 296], the IC50 is less than 100 nM on human PRMT1, 28.8 nM on human PRMT1 (setting [1]), less than 100 nM at human PRMT6 (Biochemical IC50 PRMT6) and 33 nM at human PRMT6 (setting [2]).
Take `Cc1cc(C#N)ccc1-c1n[nH]cc1CN(C)CCN` [Compound 110]: the IC50 against human PRMT1 (setting [1]) came out at 21.6 nM; at human PRMT6 (setting [2]), 16.5 nM.
The like results for `COc1ccc(-c2n[nH]cc2CN(C)CCN)c(F)c1` [Compound 107] were, in that order, 44.1 nM and 15 nM.
Consider `CNCCN(C)Cc1c[nH]nc1-c1ccc(OC2CCOCC2)c(F)c1` [Compound 291], for which the IC50 against human PRMT1 was less than 100 nM; on human PRMT1 (setting [1]), 15.6 nM; against human PRMT6 (Biochemical IC50 PRMT6), less than 100 nM; against human PRMT6 (setting [2]) it was 27.7 nM.
As for `CCC(CC)Oc1ccc(-c2n[nH]cc2CN(C)CCNC)cc1` [Compound 290], the half-inhibitory concentration (IC50) on human PRMT1 is less than 100 nM; on human PRMT1 (setting [1]), 8.28 nM; at human PRMT6 (Biochemical IC50 PRMT6) it was less than 100 nM; against human PRMT6 (setting [2]), 11.5 nM.
